For 88 compounds, melting point results are on record in a melting point compilation (Tetko et al.; mined from patent text by program, amines drawn as free bases though some values may be those of a salt).

The structures appear in SMILES notation.

Compound `O=C(Nc1cccc([N+](=O)[O-])c1)C(Br)CCBr` (racemic) showed a melting point of 75 to 76 °C.
Under `CCOC(=O)c1cc2c(C(F)(F)F)cc(C=O)cc2n1C` stands 140 to 141 °C.
Next, `O=C(CN1C(=O)c2ccccc2C1=O)Nc1ccccc1OC(F)(F)F`: 192 °C; `CCN(CC)C(=O)c1nc(-c2ccccc2)c2ccccc2n1`: 101 °C.
Next, `COc1ccc(S(=O)(=O)c2nccn2C(C)C)cc1`: 84 to 86 °C; `CCCCCCCCC1CC1C(N)=O` (stereo not drawn): 109 to 110 °C; `CCOC(=O)c1[nH]c(-c2ccc(Cl)cc2)nc1C`: 237 to 238 °C.
On to `C=CCOc1ccc(C(=O)C=Cc2cc(OC)c(CCCC)c(OC)c2)cc1`, for which the melting point fell in the range of 74 to 75 °C.
For `CCOC(OCC)c1cc(NC(c2ccccc2)(c2ccccc2)c2ccccc2)c(F)c(-c2ccc(C(F)(F)F)nc2)n1`, the melting point lay in the range of 58 to 60 °C.
`COc1nc(C)nc(NC(=O)NS(=O)(=O)c2ccccc2Cc2nnc(SC)s2)n1` came in with a melting point of 140 to 146 °C.
Next, `Cn1nc(-c2ccc(F)cc2)c(-c2ccncc2)c1CCCc1ccc([N+](=O)[O-])cc1`: 129 to 132 °C.
Next, `CCCCC(CC(=O)Nc1cc(C(N)=O)ccc1C(C)(C)C)c1cc(Cl)c(OC)cc1OC` (stereo not drawn): 212 to 214 °C; `COC(=O)Oc1ccc(F)cc1Br`: 75 to 78 °C.
Next, `Cc1ccc(S(=O)c2nc(Cl)c([N+](=O)[O-])s2)cc1` (stereo not drawn): 112 °C; `CCOc1ccc(OCC(=O)OC(C)(C)C)c2c1C(=O)N(CCl)S2(=O)=O`: 117 to 119 °C.
Turning to `CC=C1CCC2C3CCC4CC(O)CCC4(C)C3C(=NO)CC12C` (stereo not drawn), the melting point was 233 to 235 °C.
Under `Cc1nn(C)c2nc(C(C)C)c(CO)c(-c3ccc(F)cc3)c12` stands 166 to 168 °C; under `COC(=O)[C@@H]1CCCN1S(=O)(=O)c1ccc(C)c(COc2cccc3c(C)cc(C)nc23)c1C`, 50 °C.
`O=C(O)C1Cc2c([nH]c3ccccc23)C(CO)N1` (stereo not drawn) registered a melting point of 231 to 233 °C.
On to `Nc1cc(C(=O)O)cc(SCc2ccsc2)c1Oc1ccccc1`, for which the melting point is 153 to 155 °C.
Under `O=C(O)C1CCc2sc3ccccc3c2C1` (stereo not drawn) stands 202 to 203 °C.
As to `CC(=O)SC[C@H](NC(=O)OC(C)(C)C)C(=O)NC(CS)C(C)=O` (stereo partly drawn), the melting point was in the range of 111 to 113 °C.
On to `CCOC(=O)c1sc(-c2ccc(C(F)(F)F)cc2)nc1COC(C)=O`, for which the melting point was 82 °C.
Next, `CCOC(=O)CN1Cc2ccccc2C[C@H](NC(=O)OCc2ccccc2)C1=O`: 80 to 82 °C.
Next, `N#CC1=C(c2ccccc2)Nc2ccccc2S1(=O)=O`: 286 to 289 °C.
Compound `CS(=O)Cc1nnc(-c2ccc3occ(-c4cccc(OC(F)(F)F)c4)c3c2)o1` (stereo not drawn) yielded a melting point of 138 to 139 °C.
Under `Cc1c(C(=O)Nc2ccc(N3CCC(N4CCOCC4)CC3)c(C#N)c2)cnn1-c1ccc(Cl)cc1` stands 249 to 250 °C; under `CCCCc1ncc(CC(=O)NC(CCc2ccccc2)C(=O)O)n1Cc1ccccc1Cl` (racemic), 119 to 120 °C.
Under `COC(=O)Cc1cc(NC(=O)OC(C)(C)C)c(N)cc1C#Cc1ccccc1` stands 130 °C; under `NNc1ncc(-c2ccccc2)cn1`, 155 °C; under `Cc1ccc(S(=O)(=O)OCC2Cc3ccc(O)cc3O2)cc1` (stereo not drawn), 107 to 110 °C.
`O=C1OC(c2cccc(C(F)(F)F)c2)=NC1=Cc1cccs1` had a melting point of 200 to 202 °C.
Under `Cn1c(Sc2cc(C(F)(F)F)ccc2C(=O)O)n[nH]c1=O` stands 229 °C; under `COc1c(F)ccc2ccc(Cl)nc12`, 85 to 86 °C.
The compound `Cc1c(C#N)sc2nc(-c3ccccc3)nc(N3CCNCC3)c12` had a melting point of 251 to 253 °C.
For `CC(C)CSc1ccc(N)c([N+](=O)[O-])c1`, the melting point lay within 56.5 to 58.5 °C.
Next, `Cc1c(C)c(O)c(CCC(C)(O)COc2ccc(CC3SC(=O)NC3=O)cc2)c(C)c1O` (stereo not drawn): 84 to 88 °C.
On to `CC(NC(=O)C(CS)Cc1ccccc1)C(=O)O` (stereo not drawn), for which the melting point lay within 120 to 124 °C.
Under `C[C@@](O)(C(=O)Nc1ccc(S(=O)(=O)c2ccccc2NCCO)cc1Cl)C(F)(F)F` stands 68 to 70 °C; under `Cc1cnc2c(NC(=O)c3c(Cl)cccc3Cl)ccc(Br)c2c1`, 238 to 239 °C; under `CSc1sc(-c2cn[nH]c2)c2c1C(=O)CC(C)(C)C2`, 213 to 215 °C.
Regarding `CCc1ccc(-c2ccc(F)cc2)cc1`, the melting point is 60 to 63 °C.
`CC(=O)OC1N=C(c2ccccc2)c2cc(Cl)ccc2-c2c1nc(C)[nH]c2=O` (stereo not drawn): the melting point is greater than 320 °C.
For `CN1CCN(c2ncnc3oc(-c4ccc([N+](=O)[O-])cc4)c(-c4ccc(F)cc4)c23)CC1`, the melting point was greater than 250 °C.
Compound `CC(=CC(=O)c1ccc(Cl)cc1)N(C)C` gave a melting point of 103 to 105 °C.
Under `CCOC(=O)c1nnc(Cc2c(F)cccc2F)n1C` stands 127 to 128 °C; under `CC(=O)c1ccc2c(c1)C(c1ccccc1F)=NC(C)C(=O)N2C` (stereo not drawn), 65 °C; under `CCCO[C@@H]1[C@@H](OC)[C@H](C)O[C@@H](ON=Cc2ccc(/C=C/c3ccc(OC(F)(F)F)cc3)cc2)[C@@H]1OC`, 124 to 132 °C.
Next, `CCOC(=O)c1ncn(-c2nccs2)c1Cl`: 128 to 131 °C; `OC(CCCN1CC=C(c2ccccc2)CC1)c1ccc(F)cc1` (stereo not drawn): 116 to 117 °C; `O=C(Nc1ccc(-n2nc(C(F)(F)F)cc2-c2cccnc2)cc1)c1ccccc1F`: 138 to 140 °C.
Consider `O=C(NC1N=C(c2ccc(F)cc2)c2ccccc2NC1=O)OCc1ccccc1` (stereo not drawn), for which the melting point was greater than 260 °C.
Next, `CCCc1ccc(Br)nn1`: 35 to 36 °C; `COC(=O)C1=Cc2cc(-c3ccc(OCCOC(C)C)cc3)ccc2N(C=O)CC1`: 107 to 108 °C; `CC(C)(C)NC(=O)c1ccccc1-c1ccc(CBr)cc1`: 124 to 126 °C.
Under `Cc1c(NC(=O)CC(C)(C)C)cc2c(c1C)OC(C)(C)C2c1ccco1` (stereo not drawn) stands 126 to 127 °C; under `COc1cccc(CNC(=O)c2nc3cccc(COCc4ccc(C(=O)O)cc4)c3c(=O)[nH]2)c1`, 230 to 232 °C; under `CC(=O)C1=CCC2C3CCC4CC(OS(=O)(=O)c5ccc(C)cc5)CCC4(C)C3CCC12C` (stereo not drawn), 146 to 148 °C.
`CC(=O)N[C@@H]1CN2C(=O)N(c3cc(Cl)nc(Cl)c3)C(=O)[C@@]2(Cc2ccc(OC(F)(F)F)cc2)C1`: the melting point worked out at 127 °C.
As to `O=C(NC12CC3CC(CC(C3)C1)C2)c1cccc2c1OCCO2`, the melting point came to 137 °C.
Next, `Oc1ccc(-c2ccc(-c3ccc(F)cc3)nc2-c2ccc(OCCN3CCCCC3)cc2)cc1`: 194 to 195 °C; `CC(=O)ON1C(C)(C)CC(OC(=O)NCCCCCCNC(=O)OC2CC(C)(C)N(OC(C)=O)C(C)(C)C2)CC1(C)C`: 158 to 163 °C.
Under `COC(=O)C1CC(O)CN1C(=O)c1ccc2c(c1)OCCO2` (stereo not drawn) stands 185 °C; under `COc1ccccc1C(CCNC(C)(C)C)c1cc(Cl)ccc1OC` (stereo not drawn), greater than 260 °C; under `CC(Oc1ccc(S(C)=O)cc1)c1ccnc2ncnn12` (stereo not drawn), 89 to 102 °C.
Under `C=CC(=O)OCC1(COC(=O)C=C)c2ccccc2-c2ccccc21` stands 73 to 75 °C.
With `CCN(CC)c1ccc(-c2cn(-c3ccc(C4=C(C#N)C(=C(C#N)C#N)OC4(C)C)cc3)nn2)cc1`, the melting point came out at 275 °C.
Under `COc1cc2ncnc(N3CCN(C(=O)NCc4ccc(Br)cc4)CC3)c2cc1OC` stands 211 to 212 °C; under `COc1ccc(-c2ccc(C(=O)Nc3ccc4cc(CN5CCCCCC5)cnc4c3C)c(F)c2)cc1`, 171 to 172 °C.
Under `C=CCN1C(=O)c2cccc3c(N(C)CCO)ccc(c23)C1=O` stands 90 to 91 °C; under `O=C(O)C(=O)c1ccc(Br)s1`, 119 to 120 °C; under `CCOC(=O)c1cc2cc(OCOC)ccc2s1`, 74 to 75 °C.
The compound `CC(C)c1ccc(N2C(=O)CN(c3cccc(C(=O)O)c3)C2=O)cc1` had a melting point of 249 to 252 °C.
Under `N#CCCNC(=O)c1cccc(-c2ccc3c(c2)N(Cc2cc(Cl)ccc2Cl)CC3)c1` stands 152 to 153 °C; under `Cc1cccc(-c2nc3ccc(OCCCCl)cc3n2Cc2ccccc2)c1`, 97 °C.
Under `C=CCn1c(C)nc2c(O)c(C(=O)[C@@H]3OC(C)(C)O[C@H]3c3ccccc3)ccc21` stands 123 °C; under `CCOC(=O)CNC(=O)c1nc2ccc(Cl)nn2c1C`, 192 to 195 °C; under `COc1ccc(CCN2CCC(NC(=O)C34CC5CC(CC(C5)C3)C4)C2)cc1` (stereo not drawn), 81 to 83 °C.
Next, `CSc1nn2c(Cl)cc(Cl)nc2c1S(=O)(=O)c1ccccc1`: 193 to 197 °C.
For `CCOC(=O)Cc1cccc(Sc2ccccc2Cl)c1[N+](=O)[O-]`, the melting point was in the range of 78 to 80 °C.
As for `CC1CNc2c3c(nc4cccc(c24)O1)CCCC3` (stereo not drawn), the melting point was 169 to 170 °C.
Consider `COc1ccc(C=CC(=O)Nc2ccc(C)cc2C(=O)O)cc1OC`, for which the melting point is 190 to 191 °C.
On to `COc1cc(CC2SC(=O)NC2=O)ccc1OCCN1c2ccccc2Sc2ccccc21` (stereo not drawn), for which the melting point was in the range of 46 to 48 °C.
Next, `CC(C)(ON1C(C)(C)CC(OC(=O)CCCCCCCCC(=O)OC2CC(C)(C)N(OC(C)(C)c3ccccc3)C(C)(C)C2)CC1(C)C)c1ccccc1`: 94 to 96 °C.
Under `COc1ccc(S(=O)(=O)C(CCCCc2ccccc2)C(=O)O)cc1OC` (stereo not drawn) stands 114 to 116 °C.
For `Clc1cccc(-c2nc(-c3ccccn3)no2)c1Cl`, the melting point lay within 128 to 133 °C.
As to `N=C(N)NCCCOc1ccc2c(c1)CC(CCC(=O)O)C(=O)N2` (stereo not drawn), the melting point fell in the range of 168 to 172 °C.
Compound `COc1ccccc1C=C1N=C(C)OC1=O` had a melting point of 151 to 153 °C.

What is called melting point is the temperature of the solid-liquid transition.
